From patent US20200179312A1, “ANALOGUES OF CYSTEAMINE AS THERAPEUTIC AGENTS FOR CYSTIC FIBROSIS” (I.E.R.F.C. EUROPEAN INSTITUTE FOR CYSTIC FIBROSIS RESEARCH, priority 2018, published 2020) come the findings set out here.

Assay [1] concerns BECN1, SQSTM1/p62, (phospho)p42/44 MAPK. Nature of the assay: Immunoblot of autophagy and inflammation markers in nasal primary cells. The settings on record: 0.1 μM. The format is cell-based, human. The source says: (§1) Freshly isolated brushed nasal epithelial cells were collected by nasal brushing, as previously described (21, 21) from 10 F508del-CFTR homozygous CF patients and from 5 non-CF healthy volunteers recruited from staff at the same time points. Both patients and healthy volunteers gave written informed consent. […] Brushes with cells were immediately transferred into RPMI 1640 medium (Invitrogen) containing 1% penicillin-streptomycin (Lonza, 17-602E), in 15-ml sterilized tubes. The tubes were incubated at 37° C. for 2 h on a thermo shaker, to remove all cell from brushes; the brushes were then removed and the cells centrifuged at 800×g (2000 rpm) for 20 min. The supernatant fractions were discarded and the cell pellet treated with […] of trypsin-versene (EDTA) solution (Lonza, 17-161) for 4 min at 37° C. to disaggregate possible cell clusters. Trypsin solution was inactivated by adding 3 ml of serum-free Bronchial Epithelial cell Growth Medium BEGM (Clonetics, Lonza, CC3170). After centrifugation at 800×g (2000 rpm) for 10 min, cells were placed in CELLC T 25 flasks (Sarstedt Ltd, CS300) with 10 ml of BEGM medium. Nonspecific epithelial cells were removed during the daily cell washing and medium changes.
The proteins of cell lines lysates or lung or small intestine homogenates, obtained from treated and untreated cells or mice, were quantified by a Bio-Rad protein assay to ensure equal protein loading before immunoblot analysis. Fifty micrograms of proteins were loaded in each lane. Antibodies against SQSTM1, (Sigma Aldrich,P0067) 1:1000, BECN1 (Abcam, ab58878), 1:1000, CFTR clone CF3 (Abcam, ab2784) 1:1000 or anti-CFTR antibody 660 1:1000, Phospho-p44/42 MAPK (Erk1/2) (Thr202/Tyr204) (Cell Signaling Technology, #91101) 1:1000, TG2 (CUB7402, NEOMARKER) 1:1000 were used. Normalization was performed by probing the membrane with anti-β-actin (Cell Signaling, #4970) 1:1000 or anti-α-tubulin (Cell Signaling Technology, 2148) 1:1000.
A general note: In western blotting, separated proteins are transferred to a membrane and probed.

For assay [2], the target named is T1, F508delCFTR (Homo sapiens, UniProt P13569, DEL508-508). Nature of the assay: SPQ assay in CFBE41o- cells transfected with F508delCFTR. It is filed as cell-based. On the set-up: expressed in transfected cells; host or cells: CFBE41o- cells. The method, then:
The compounds of formula I have marked effects on CFTR function. A representative number of compounds of formula I (Compounds IE1-IE4; Table I) were tested in comparison to cysteamine and amifostine through SPQ assay in F508delCFTR homozygous bronchial epithelial cell lines (CFBE41o-) transfected with F508delCFTR (FIG. 1) and in ex vivo in nasal cells collected by nasal brushing from CF patients (FIGS. 2A and B). Cell lines experiments. CFBE41l- and 16HBE14o-cells were cultured in Minimum Essential Medium (MEM) with Earle's salt, 200 mM L-Glutamine, 10% FBS and penicillin/streptomycin. CFBE41o-cells were transfected with AF508-CFTR at 37° C. and incubated for 18 h with cysteamine (250 μM) or different concentration of IE1.

In a further assay the target is T2, CFTR (Mus musculus, UniProt P26361, DEL508-508).
T2 construct: the Ussing chamber experiments (on small intestinal tissues); from tissue; host or cells: small intestine (Ussing chamber); lung and small intestine homogenates (immunoblot) of CftrF508del mice
T2 sequence (P26361 with tags, fused parts or gaps DEL508-508): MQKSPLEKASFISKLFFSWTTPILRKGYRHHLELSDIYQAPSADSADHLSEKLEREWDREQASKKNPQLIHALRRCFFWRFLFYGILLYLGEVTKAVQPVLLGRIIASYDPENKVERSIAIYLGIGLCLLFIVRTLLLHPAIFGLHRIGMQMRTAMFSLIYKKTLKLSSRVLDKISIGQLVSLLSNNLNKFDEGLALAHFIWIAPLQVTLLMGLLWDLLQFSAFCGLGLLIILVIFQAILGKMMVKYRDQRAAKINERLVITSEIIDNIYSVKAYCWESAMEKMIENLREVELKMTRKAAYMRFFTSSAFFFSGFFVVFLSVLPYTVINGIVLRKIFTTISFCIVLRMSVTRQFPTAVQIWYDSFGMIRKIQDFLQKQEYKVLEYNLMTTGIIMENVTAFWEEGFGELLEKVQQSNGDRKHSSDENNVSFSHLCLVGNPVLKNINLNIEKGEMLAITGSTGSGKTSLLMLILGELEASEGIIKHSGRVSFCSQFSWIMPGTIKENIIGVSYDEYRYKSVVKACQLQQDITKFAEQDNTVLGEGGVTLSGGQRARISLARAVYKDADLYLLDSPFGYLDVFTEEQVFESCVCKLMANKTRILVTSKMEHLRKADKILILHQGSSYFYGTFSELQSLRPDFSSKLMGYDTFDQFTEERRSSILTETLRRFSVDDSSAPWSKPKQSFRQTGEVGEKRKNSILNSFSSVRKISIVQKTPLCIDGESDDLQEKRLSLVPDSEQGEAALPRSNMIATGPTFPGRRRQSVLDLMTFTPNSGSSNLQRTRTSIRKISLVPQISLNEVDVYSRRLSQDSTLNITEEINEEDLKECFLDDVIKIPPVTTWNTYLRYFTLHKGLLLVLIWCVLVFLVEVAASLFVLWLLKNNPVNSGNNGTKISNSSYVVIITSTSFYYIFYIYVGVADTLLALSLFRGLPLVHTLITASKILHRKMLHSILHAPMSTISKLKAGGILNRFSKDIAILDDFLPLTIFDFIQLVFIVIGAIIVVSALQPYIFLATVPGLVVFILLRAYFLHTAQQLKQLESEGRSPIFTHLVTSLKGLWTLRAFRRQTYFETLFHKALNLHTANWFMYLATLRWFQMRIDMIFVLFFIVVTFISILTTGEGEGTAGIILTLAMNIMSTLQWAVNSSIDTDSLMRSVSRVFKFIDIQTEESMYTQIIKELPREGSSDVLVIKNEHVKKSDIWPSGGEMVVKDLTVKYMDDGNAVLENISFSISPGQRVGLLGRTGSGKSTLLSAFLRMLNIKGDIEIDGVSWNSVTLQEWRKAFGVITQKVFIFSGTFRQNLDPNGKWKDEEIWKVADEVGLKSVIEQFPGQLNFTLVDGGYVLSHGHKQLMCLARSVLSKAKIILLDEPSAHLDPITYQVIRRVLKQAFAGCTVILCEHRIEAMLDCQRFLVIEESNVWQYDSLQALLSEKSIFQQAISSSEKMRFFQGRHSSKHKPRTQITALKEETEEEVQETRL
The assay is described as follows: Immunoblot of CFTR protein levels in tissues of CftrF508del mice. It is filed as in vivo. The settings on record: i.p. 5 d, then 20 d of wash out, lung and small intestinal tissue. The source says: CF mice homozygous for the delF508-CFTR mutation (abbreviated CftrF508del) in the 129/FVB outbred background (CftrtmlEUR, F508del, FVB/129) were obtained from Erasmus Medical Center Rotterdam, The Netherlands (CF coordinated action program EU FP6 LSHM-CT-2005-018932). These studies and procedures were approved by the local Ethics Committee for Animal Welfare (IACUC No 713). Young adult CF mice and their wild-type (wt) littermates were housed in static isolator cages at the animal care specific pathogen-free facility of Charles River (Calco, Italy). CftrF508del mice were treated with daily intraperitoneal injections of cysteamine (100 μl of 0.05 M in PBS) (Sigma Aldrich, M9768) or IE1 (100 μl of 0.075-0.05-0.025-0.0125 M, in PBS) for 5 d or with cysteamine (5 d) or IE1 different concentrations followed by 10 d or 20 d of PBS alone (n=5 mice per group) (19,20).
The proteins of cell lines lysates or lung or small intestine homogenates, obtained from treated and untreated cells or mice, were quantified by a Bio-Rad protein assay to ensure equal protein loading before immunoblot analysis. Fifty micrograms of proteins were loaded in each lane. […]

For assay [3], the target named is T1, F508delCFTR. Nature of the assay: SPQ assay in primary nasal cells collected by nasal brushing from CF patients. It is filed as cell-based. On the set-up: Freshly isolated brushed nasal epithelial cells were collected by nasal brushing; endogenous in cells; host or cells: primary nasal epithelial cells from F508del-homozygous CF patients. The method, then: as §1, with “The compounds of formula I have marked effects on CFTR function. A representative number of compounds of formula I (Compounds IE1-IE4; Table I) were tested in comparison to cysteamine and amifostine through SPQ assay in F508delCFTR homozygous bronchial epithelial cell lines (CFBE41o-) transfected with F508delCFTR (FIG. 1) and in ex vivo in nasal cells collected by nasal brushing from CF patients (FIGS. 2A and B). Freshly” for “Freshly”, “CELLC T” left out

T1 sequence (P13569 with tags, fused parts or gaps DEL508-508): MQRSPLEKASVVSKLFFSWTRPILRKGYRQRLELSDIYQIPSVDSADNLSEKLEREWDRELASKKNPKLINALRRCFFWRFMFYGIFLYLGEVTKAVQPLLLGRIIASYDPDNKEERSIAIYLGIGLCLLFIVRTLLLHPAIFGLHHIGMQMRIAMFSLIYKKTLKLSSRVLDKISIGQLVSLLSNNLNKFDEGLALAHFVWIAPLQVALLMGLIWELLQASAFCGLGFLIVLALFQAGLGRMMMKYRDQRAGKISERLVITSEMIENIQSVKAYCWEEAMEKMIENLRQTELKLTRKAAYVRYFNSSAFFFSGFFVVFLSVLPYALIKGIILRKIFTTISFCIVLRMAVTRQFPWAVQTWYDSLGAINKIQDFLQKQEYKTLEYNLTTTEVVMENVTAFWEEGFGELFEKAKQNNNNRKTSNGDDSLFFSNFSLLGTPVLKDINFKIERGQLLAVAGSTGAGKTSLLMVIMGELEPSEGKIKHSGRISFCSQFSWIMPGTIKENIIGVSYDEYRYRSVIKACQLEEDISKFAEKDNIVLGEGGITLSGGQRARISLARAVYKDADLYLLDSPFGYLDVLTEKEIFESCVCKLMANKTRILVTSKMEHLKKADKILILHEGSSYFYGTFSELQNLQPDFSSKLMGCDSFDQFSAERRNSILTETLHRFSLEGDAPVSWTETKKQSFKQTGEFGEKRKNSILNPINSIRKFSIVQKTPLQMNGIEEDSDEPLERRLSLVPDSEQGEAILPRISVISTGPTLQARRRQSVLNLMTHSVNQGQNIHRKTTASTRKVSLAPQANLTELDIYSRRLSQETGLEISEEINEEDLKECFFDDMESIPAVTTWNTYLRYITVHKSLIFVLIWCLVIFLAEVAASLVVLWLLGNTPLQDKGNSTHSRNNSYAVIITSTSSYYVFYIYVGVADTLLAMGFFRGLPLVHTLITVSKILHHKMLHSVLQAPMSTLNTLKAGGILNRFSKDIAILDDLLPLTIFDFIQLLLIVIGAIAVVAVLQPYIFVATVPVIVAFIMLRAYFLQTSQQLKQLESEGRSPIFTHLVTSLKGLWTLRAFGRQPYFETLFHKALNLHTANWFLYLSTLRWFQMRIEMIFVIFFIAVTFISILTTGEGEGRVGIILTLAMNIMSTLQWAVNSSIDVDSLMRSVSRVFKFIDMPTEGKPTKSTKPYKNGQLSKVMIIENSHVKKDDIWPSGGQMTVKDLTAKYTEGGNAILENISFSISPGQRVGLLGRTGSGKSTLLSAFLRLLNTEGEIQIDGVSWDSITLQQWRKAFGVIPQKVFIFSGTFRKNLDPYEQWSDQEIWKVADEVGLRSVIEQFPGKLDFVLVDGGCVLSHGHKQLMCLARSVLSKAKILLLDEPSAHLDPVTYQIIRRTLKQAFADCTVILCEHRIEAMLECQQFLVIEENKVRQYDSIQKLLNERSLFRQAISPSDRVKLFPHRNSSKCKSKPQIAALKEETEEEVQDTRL

As for `NCCCS` [IE1, 3-aminopropane-1-thiol], the BECN1 level entry in assay [1] is recorded as “able to restore BECN1”. The “Inflammation biomarkers (phospho)p42/44 MAPK” value in assay [1] is on record as “decrease”. The p62 levels entry in assay [1] is “reduce p62 levels”. For the same compound, in assay [1] (48 h, EGCG), the “Effect on (phospho)p42/44 MAPK after 48 h in presence of EGCG” value is reported as “maintained”. Besides, the “Effect on BECN1 and p62 after 48 h with EGCG addition” value in assay [1] (48 h, EGCG addition) is listed as “preserved”. The “Effect on (phospho)p42/44 MAPK after 48 h” value in assay [1] (after 48 h) is listed as “completely lost”. Moreover, the “Effect on BECN1 and p62 after 48 h” value in assay [1] (after 48 h) is “disappears”. In addition, the “Concentration lower than cysteamine for equal restoration of CFTR function” value at F508delCFTR [2] (0.1 μM vs 250 μM) is on record as “more than 2500 fold”. Besides, the “% Function vs 16HBE” value on F508delCFTR [2] (0.1 μM, CFBE41o- transfected with F508delCFTR) was determined as 72%. Further, the “CFTR function after wash out with EGCG added” value on F508delCFTR [2] (48 h after wash out, epigallocatechin gallate added, CFBE cells) is recorded as “effect is preserved”; at F508delCFTR [3] (48 h after wash out, epigallocatechin gallate added, nasal primary cells), “effect is preserved”. Moreover, the “CFTR function after wash out” value at F508delCFTR [2] (48 h after wash out, CFBE cells) was “loses its efficacy”; on F508delCFTR [2] (up to 24 h after wash out, CFBE cells), “able to maintain CFTR function”; at F508delCFTR [3] (48 h after wash out, nasal primary cells), “loses its efficacy”; at F508delCFTR [3] (up to 24 h after wash out, nasal cells), “able to maintain CFTR function”. Moreover, the “CFTR protein levels after wash out (immunoblot)” value on CFTR is “sustaining the protein well beyond 20 d of wash out”. Besides, the “Efficacy on CFTR function compared with VX-809” value at F508delCFTR [3] (VX-809 3 μM, FIG. 2A) was “more efficacious than VX-809”.
